Test system: KRAS-mutant PDC multicell tumor spheroid viability
Experiment: Anticancer human tumor 521955-158-R2-J5-PDC patient-derived pancreatic carcinoma cell line growth inhibition [KRAS2]
Settings: for IC50: curve of first compound; for viability, T/C: stronger effect = lower value
Procedure, shortened: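 Combination screen of spheroid viability in tumor-cell co-cultures with endothelial (HUVEC) and mesenchymal stem cell stroma. Each agent was tested in half-log dilutions, topping at clinical Cmax or at 10 microM without a known Cmax.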

[1] = second compound 0.1 µM, first compound 0.0316 µM
[2] = second compound 0.316 µM, first compound 0.0316 µM
[3] = second compound 1 µM, first compound 0.0316 µM
[4] = second compound 3.16 µM, first compound 0.0316 µM
[5] = second compound 10 µM, first compound 0.0316 µM
[6] = second compound 0.1 µM, first compound 0.1 µM
[7] = second compound 0.1 µM, first compound 0.316 µM
[8] = second compound 0.1 µM, first compound 1 µM
[9] = second compound 0.1 µM, first compound 3.16 µM
[10] = second compound 0.1 µM, first compound 10 µM
[11] = second compound 0.316 µM, first compound 0.1 µM
[12] = second compound 0.316 µM, first compound 0.316 µM
[13] = second compound 0.316 µM, first compound 1 µM
[14] = second compound 0.316 µM, first compound 3.16 µM
[15] = second compound 0.316 µM, first compound 10 µM
[16] = second compound 1 µM, first compound 0.1 µM
[17] = second compound 1 µM, first compound 0.316 µM
[18] = second compound 1 µM, first compound 1 µM
[19] = second compound 1 µM, first compound 3.16 µM
[20] = second compound 1 µM, first compound 10 µM
[21] = second compound 3.16 µM, first compound 0.1 µM
[22] = second compound 3.16 µM, first compound 0.316 µM
[23] = second compound 3.16 µM, first compound 1 µM
[24] = second compound 3.16 µM, first compound 3.16 µM
[25] = second compound 3.16 µM, first compound 10 µM
[26] = second compound 10 µM, first compound 0.1 µM
[27] = second compound 10 µM, first compound 0.316 µM
[28] = second compound 10 µM, first compound 1 µM
[29] = second compound 10 µM, first compound 3.16 µM
[30] = second compound 10 µM, first compound 10 µM
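Also: viability read after seven days of drug exposure.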

## CC(=O)Nc1cccc(-n2c(=O)n(C3CC3)c(=O)c3c(Nc4ccc(I)cc4F)n(C)c(=O)c(C)c32)c1 + CNCc1ccccc1-c1csc(C(C)Nc2nc(C)nc3cc(OC)c(OC)cc23)c1
Second compound 0.1 µM
  IC50: 0.252 nM
Second compound 0.316 µM
  IC50: 0.285 nM
Second compound 1 µM
  IC50: 0.312 nM
Second compound 3.16 µM
  IC50: < 0.1 nM
Second compound 10 µM
  IC50: < 0.1 nM
Second compound 0.1 µM, first compound 0.0001 µM
  viability, T/C: 70.5%
Second compound 0.1 µM, first compound 0.000316 µM
  viability, T/C: 44.9%
Second compound 0.1 µM, first compound 0.001 µM
  viability, T/C: 28.5%
Second compound 0.1 µM, first compound 0.00316 µM
  viability, T/C: 27.1%
Second compound 0.1 µM, first compound 0.01 µM
  viability, T/C: 20.9%
[1]
  viability, T/C: 15.9%
Second compound 0.316 µM, first compound 0.0001 µM
  viability, T/C: 69%
Second compound 0.316 µM, first compound 0.000316 µM
  viability, T/C: 43.6%
Second compound 0.316 µM, first compound 0.001 µM
  viability, T/C: 38%
Second compound 0.316 µM, first compound 0.00316 µM
  viability, T/C: 26.3%
Second compound 0.316 µM, first compound 0.01 µM
  viability, T/C: 22.2%
[2]
  viability, T/C: 14.1%
Second compound 1 µM, first compound 0.0001 µM
  viability, T/C: 81.5%
Second compound 1 µM, first compound 0.000316 µM
  viability, T/C: 39.6%
Second compound 1 µM, first compound 0.001 µM
  viability, T/C: 35.7%
Second compound 1 µM, first compound 0.00316 µM
  viability, T/C: 24.5%
Second compound 1 µM, first compound 0.01 µM
  viability, T/C: 7.75%
[3]
  viability, T/C: 2.12%
Second compound 3.16 µM, first compound 0.0001 µM
  viability, T/C: 1.11%
Second compound 3.16 µM, first compound 0.000316 µM
  viability, T/C: 0.2%
Second compound 3.16 µM, first compound 0.001 µM
  viability, T/C: 1.26%
Second compound 3.16 µM, first compound 0.00316 µM
  viability, T/C: 0.11%
Second compound 3.16 µM, first compound 0.01 µM
  viability, T/C: 0.95%
[4]
  viability, T/C: 0.19%
Second compound 10 µM, first compound 0.0001 µM
  viability, T/C: 0.21%
Second compound 10 µM, first compound 0.000316 µM
  viability, T/C: 0.24%
Second compound 10 µM, first compound 0.001 µM
  viability, T/C: 0.18%
Second compound 10 µM, first compound 0.00316 µM
  viability, T/C: 0.4%
Second compound 10 µM, first compound 0.01 µM
  viability, T/C: 2.28%
[5]
  viability, T/C: 0.26%

## COC(=O)c1ccc2c(C(=Nc3ccc(N(C)C(=O)CN4CCN(C)CC4)cc3)c3ccccc3)c(O)[nH]c2c1 + CNCc1ccccc1-c1csc(C(C)Nc2nc(C)nc3cc(OC)c(OC)cc23)c1
Second compound 0.1 µM
  IC50: 2260 nM
Second compound 0.316 µM
  IC50: 1800 nM
Second compound 1 µM
  IC50: 1960 nM
Second compound 3.16 µM
  IC50: < 31.6 nM
Second compound 10 µM
  IC50: < 31.6 nM
[1]
  viability, T/C: 87.3%
[6]
  viability, T/C: 111%
[7]
  viability, T/C: 103%
[8]
  viability, T/C: 123%
[9]
  viability, T/C: 26.9%
[10]
  viability, T/C: 1.42%
[2]
  viability, T/C: 90%
[11]
  viability, T/C: 101%
[12]
  viability, T/C: 100%
[13]
  viability, T/C: 107%
[14]
  viability, T/C: 2.22%
[15]
  viability, T/C: 0.15%
[3]
  viability, T/C: 97.1%
[16]
  viability, T/C: 103%
[17]
  viability, T/C: 115%
[18]
  viability, T/C: 95.3%
[19]
  viability, T/C: 17.5%
[20]
  viability, T/C: 0.14%
[4]
  viability, T/C: 0.52%
[21]
  viability, T/C: 0.17%
[22]
  viability, T/C: 0.16%
[23]
  viability, T/C: 0.15%
[24]
  viability, T/C: 0.07%
[25]
  viability, T/C: 0.59%
[5]
  viability, T/C: 0.14%
[26]
  viability, T/C: 0.13%
[27]
  viability, T/C: 0.13%
[28]
  viability, T/C: 0.13%
[29]
  viability, T/C: 0.12%
[30]
  viability, T/C: 0.19%

## COc1cc(Nc2ncc3c(n2)-c2ccc(Cl)cc2C(c2c(F)cccc2OC)=NC3)ccc1C(=O)O + CNCc1ccccc1-c1csc(C(C)Nc2nc(C)nc3cc(OC)c(OC)cc23)c1
Second compound 0.1 µM
  IC50: 75.6 nM
Second compound 0.316 µM
  IC50: < 31.6 nM
Second compound 1 µM
  IC50: < 31.6 nM
Second compound 3.16 µM
  IC50: < 31.6 nM
Second compound 10 µM
  IC50: < 31.6 nM
[1]
  viability, T/C: 57.5%
[6]
  viability, T/C: 48.2%
[7]
  viability, T/C: 43.6%
[8]
  viability, T/C: 48.2%
[9]
  viability, T/C: 49.2%
[10]
  viability, T/C: 43.6%
[2]
  viability, T/C: 48.4%
[11]
  viability, T/C: 45.4%
[12]
  viability, T/C: 51.4%
[13]
  viability, T/C: 46%
[14]
  viability, T/C: 47.6%
[15]
  viability, T/C: 39.8%
[3]
  viability, T/C: 39.7%
[16]
  viability, T/C: 31.4%
[17]
  viability, T/C: 34.5%
[18]
  viability, T/C: 28.4%
[19]
  viability, T/C: 35.2%
[20]
  viability, T/C: 40.9%
[4]
  viability, T/C: 0.73%
[21]
  viability, T/C: 0.13%
[22]
  viability, T/C: 1.25%
[23]
  viability, T/C: 1.11%
[24]
  viability, T/C: 0.12%
[25]
  viability, T/C: 1.59%
[5]
  viability, T/C: 0.28%
[26]
  viability, T/C: 0.29%
[27]
  viability, T/C: 0.26%
[28]
  viability, T/C: 0.51%
[29]
  viability, T/C: 1.28%
[30]
  viability, T/C: 0.37%

## O=C(c1cc(Cc2n[nH]c(=O)c3ccccc23)ccc1F)N1CCN(C(=O)C2CC2)CC1 + CNCc1ccccc1-c1csc(C(C)Nc2nc(C)nc3cc(OC)c(OC)cc23)c1
Second compound 0.1 µM
  IC50: > 10000 nM
Second compound 0.316 µM
  IC50: > 10000 nM
Second compound 1 µM
  IC50: > 10000 nM
Second compound 3.16 µM
  IC50: < 31.6 nM
Second compound 10 µM
  IC50: < 31.6 nM
[1]
  viability, T/C: 93.9%
[6]
  viability, T/C: 106%
[7]
  viability, T/C: 91%
[8]
  viability, T/C: 88.3%
[9]
  viability, T/C: 72.7%
[10]
  viability, T/C: 55.7%
[2]
  viability, T/C: 86.7%
[11]
  viability, T/C: 100%
[12]
  viability, T/C: 94.5%
[13]
  viability, T/C: 88.8%
[14]
  viability, T/C: 72.1%
[15]
  viability, T/C: 54.3%
[3]
  viability, T/C: 92.3%
[16]
  viability, T/C: 98.1%
[17]
  viability, T/C: 99.6%
[18]
  viability, T/C: 94.5%
[19]
  viability, T/C: 70.7%
[20]
  viability, T/C: 51.9%
[4]
  viability, T/C: 0.34%
[21]
  viability, T/C: 0.17%
[22]
  viability, T/C: 0.17%
[23]
  viability, T/C: 0.65%
[24]
  viability, T/C: 0.18%
[25]
  viability, T/C: 0.2%
[5]
  viability, T/C: 0.16%
[26]
  viability, T/C: 0.14%
[27]
  viability, T/C: 0.16%
[28]
  viability, T/C: 0.16%
[29]
  viability, T/C: 0.18%
[30]
  viability, T/C: 0.23%
